From ChEMBL document CHEMBL1155782 (Bioorg Med Chem, 2008)

Experiments:
Carbonic anhydrase 13 = Carbonic anhydrase 13 (Mus musculus, UniProt Q9D6N1)
Description: Inhibition of mouse carbonic anhydrase 13 by stopped-flow CO2 hydration assay

Carbonic anhydrase 9 = Carbonic anhydrase 9 (Homo sapiens, UniProt Q16790)
Description: Inhibition of human carbonic anhydrase 9 catalytic domain by stopped-flow CO2 hydration assay

Carbonic anhydrase 12 = Carbonic anhydrase 12 (Homo sapiens, UniProt O43570)
Description: Inhibition of human carbonic anhydrase 12 catalytic domain by stopped-flow CO2 hydration assay

Carbonic anhydrase 14 = Carbonic anhydrase 14 (Homo sapiens, UniProt Q9ULX7)
Description: Inhibition of human carbonic anhydrase 14 by stopped-flow CO2 hydration assay

Carbonic anhydrase 3 = Carbonic anhydrase 3 (Homo sapiens, UniProt P07451)
Description: Inhibition of human carbonic anhydrase 3 by stopped-flow CO2 hydration assay

Carbonic anhydrase 4 = Carbonic anhydrase 4 (Homo sapiens, UniProt P22748)
Description: Inhibition of human carbonic anhydrase 4 by stopped-flow CO2 hydration assay

[1] = target: Carbonic anhydrase 5A, mitochondrial (Homo sapiens, UniProt P35218)
Description: Inhibition of human carbonic anhydrase 5A by stopped-flow CO2 hydration assay

[2] = target: Carbonic anhydrase 5B, mitochondrial (Homo sapiens, UniProt Q9Y2D0)
Description: Inhibition of human carbonic anhydrase 5B by stopped-flow CO2 hydration assay

Carbonic anhydrase 6 = Carbonic anhydrase 6 (Homo sapiens, UniProt P23280)
Description: Inhibition of human carbonic anhydrase 6 by stopped-flow CO2 hydration assay

Carbonic anhydrase 7 = Carbonic anhydrase 7 (Homo sapiens, UniProt P43166)
Chain of Carbonic anhydrase 7 (P43166 whole entry): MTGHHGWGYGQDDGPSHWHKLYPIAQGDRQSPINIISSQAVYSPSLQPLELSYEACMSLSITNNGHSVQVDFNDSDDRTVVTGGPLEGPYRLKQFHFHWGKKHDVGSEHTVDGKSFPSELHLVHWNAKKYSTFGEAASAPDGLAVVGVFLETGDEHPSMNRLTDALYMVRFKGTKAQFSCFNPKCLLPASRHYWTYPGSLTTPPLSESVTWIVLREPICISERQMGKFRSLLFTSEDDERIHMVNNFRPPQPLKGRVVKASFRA
Description: Inhibition of human carbonic anhydrase 7 by stopped-flow CO2 hydration assay

Chain of Carbonic anhydrase 3 (P07451 whole entry): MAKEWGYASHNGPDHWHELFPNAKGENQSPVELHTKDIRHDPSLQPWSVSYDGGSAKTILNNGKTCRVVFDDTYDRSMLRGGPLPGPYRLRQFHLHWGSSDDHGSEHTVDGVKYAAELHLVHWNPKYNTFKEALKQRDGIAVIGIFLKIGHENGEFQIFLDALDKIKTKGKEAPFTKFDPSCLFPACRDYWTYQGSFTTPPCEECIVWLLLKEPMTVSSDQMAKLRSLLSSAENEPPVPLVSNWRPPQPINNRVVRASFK
Chain of Carbonic anhydrase 5A, mitochondrial (P35218 whole entry): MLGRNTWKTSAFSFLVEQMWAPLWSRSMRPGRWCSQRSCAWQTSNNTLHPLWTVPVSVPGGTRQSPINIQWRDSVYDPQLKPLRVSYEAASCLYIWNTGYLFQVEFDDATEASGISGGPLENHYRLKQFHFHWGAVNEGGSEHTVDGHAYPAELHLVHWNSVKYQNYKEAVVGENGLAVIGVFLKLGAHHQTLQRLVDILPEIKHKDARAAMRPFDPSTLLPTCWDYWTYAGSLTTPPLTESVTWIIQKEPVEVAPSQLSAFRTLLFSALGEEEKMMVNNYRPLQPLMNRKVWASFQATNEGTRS
Chain of Carbonic anhydrase 12 (O43570 whole entry): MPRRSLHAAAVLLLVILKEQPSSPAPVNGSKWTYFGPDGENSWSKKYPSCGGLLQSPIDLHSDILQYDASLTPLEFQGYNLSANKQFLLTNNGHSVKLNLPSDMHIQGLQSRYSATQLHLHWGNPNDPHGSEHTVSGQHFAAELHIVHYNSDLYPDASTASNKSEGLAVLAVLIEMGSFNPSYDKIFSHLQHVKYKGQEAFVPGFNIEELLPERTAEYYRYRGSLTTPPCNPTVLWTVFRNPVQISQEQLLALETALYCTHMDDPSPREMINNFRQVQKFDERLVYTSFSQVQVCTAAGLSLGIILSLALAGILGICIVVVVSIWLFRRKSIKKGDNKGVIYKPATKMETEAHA
Chain of Carbonic anhydrase 4 (P22748 whole entry): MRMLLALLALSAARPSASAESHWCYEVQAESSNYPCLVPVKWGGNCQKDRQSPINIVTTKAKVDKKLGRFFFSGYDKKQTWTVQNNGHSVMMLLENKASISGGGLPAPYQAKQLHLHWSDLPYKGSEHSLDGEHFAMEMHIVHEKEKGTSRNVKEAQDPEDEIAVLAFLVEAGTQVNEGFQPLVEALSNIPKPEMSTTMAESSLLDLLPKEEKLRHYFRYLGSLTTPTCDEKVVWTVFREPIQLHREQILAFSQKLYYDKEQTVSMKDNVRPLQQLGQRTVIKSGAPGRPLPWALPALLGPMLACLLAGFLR
Chain of Carbonic anhydrase 13 (Q9D6N1 whole entry): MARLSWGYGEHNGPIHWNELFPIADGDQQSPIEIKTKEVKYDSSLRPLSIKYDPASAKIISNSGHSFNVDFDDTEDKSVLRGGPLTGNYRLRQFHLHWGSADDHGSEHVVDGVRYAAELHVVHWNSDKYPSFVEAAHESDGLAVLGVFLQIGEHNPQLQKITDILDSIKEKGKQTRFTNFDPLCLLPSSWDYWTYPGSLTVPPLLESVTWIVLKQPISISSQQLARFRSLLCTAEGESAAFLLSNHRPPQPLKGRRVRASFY
Chain of Carbonic anhydrase 6 (P23280 whole entry): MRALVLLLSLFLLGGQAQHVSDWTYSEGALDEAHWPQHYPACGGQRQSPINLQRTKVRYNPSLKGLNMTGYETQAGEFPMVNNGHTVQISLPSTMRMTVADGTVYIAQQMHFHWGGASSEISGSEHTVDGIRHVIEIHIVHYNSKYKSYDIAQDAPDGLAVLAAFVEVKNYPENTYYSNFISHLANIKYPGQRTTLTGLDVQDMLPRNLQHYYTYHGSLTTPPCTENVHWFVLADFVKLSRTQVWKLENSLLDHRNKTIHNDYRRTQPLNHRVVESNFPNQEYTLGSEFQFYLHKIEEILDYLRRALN
Chain of Carbonic anhydrase 5B, mitochondrial (Q9Y2D0 whole entry): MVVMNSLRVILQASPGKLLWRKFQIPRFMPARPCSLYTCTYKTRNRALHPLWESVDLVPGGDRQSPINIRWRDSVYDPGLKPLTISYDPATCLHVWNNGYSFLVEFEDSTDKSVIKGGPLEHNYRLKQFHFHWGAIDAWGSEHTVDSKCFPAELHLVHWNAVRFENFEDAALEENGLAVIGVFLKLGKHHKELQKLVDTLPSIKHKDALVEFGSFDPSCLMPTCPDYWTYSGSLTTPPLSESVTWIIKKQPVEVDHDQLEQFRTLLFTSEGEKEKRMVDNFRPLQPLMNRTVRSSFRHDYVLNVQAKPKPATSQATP
Chain of Carbonic anhydrase 14 (Q9ULX7 whole entry): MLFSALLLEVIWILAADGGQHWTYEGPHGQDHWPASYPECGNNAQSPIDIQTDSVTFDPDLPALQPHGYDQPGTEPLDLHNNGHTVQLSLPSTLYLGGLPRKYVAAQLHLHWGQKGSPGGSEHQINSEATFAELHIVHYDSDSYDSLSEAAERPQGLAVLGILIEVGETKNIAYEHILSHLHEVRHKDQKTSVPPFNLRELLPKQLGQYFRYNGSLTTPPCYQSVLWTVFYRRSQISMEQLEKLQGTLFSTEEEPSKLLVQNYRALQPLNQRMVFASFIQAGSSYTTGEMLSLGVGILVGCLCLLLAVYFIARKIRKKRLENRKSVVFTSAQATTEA

| Compound | Ki (Carbonic anhydrase 13) [µM] | Ki (Carbonic anhydrase 9) [µM] | Ki (Carbonic anhydrase 12) [µM] | Ki (Carbonic anhydrase 14) [µM] | Ki (Carbonic anhydrase 3) [µM] | Ki (Carbonic anhydrase 4) [µM] | Ki [1] [µM] | Ki [2] [µM] | Ki (Carbonic anhydrase 6) [µM] | Ki (Carbonic anhydrase 7) [µM] |
| --- | --- | --- | --- | --- | --- | --- | --- | --- | --- | --- |
| Oc1cc(F)ccc1F | 69.5 | 68.7 | 598 | 34 | 10.8 | 426 | 12 | 51.2 | 90.6 | 554 |
| N#Cc1ccc(O)cc1 [4-CYANOPHENOL] | 45 | 56 | – | – | – | 634 | 520 | 557 | – | 777 |
| CC(=O)Nc1ccc(O)cc1 [ACETAMINOPHEN] | 30.3 | 70.7 | 4.1 | 10.6 | 7.1 | 11.4 | 802 | 296 | 658 | – |
| Oc1ccccc1O [CATECHOL] | 12.2 | 115 | 8.9 | 48.9 | 13 | – | 55.1 | 4.2 | 606 | 714 |
| Oc1ccc(O)cc1 [HYDROQUINONE] | 74.3 | 32.5 | 7.8 | 42 | 8.2 | – | 14.1 | 12.5 | 521 | 883 |
| O=C(O)c1ccc(O)cc1 [PARABEN] | 86 | 118 | 4.8 | 34.3 | 696 | 809 | 9.2 | – | 11.4 | 716 |
| Oc1cccc(O)c1 [RESORCINOL] | 62.6 | 69.7 | 7.5 | 10.7 | 605 | 570 | 8.7 | 7.1 | 550 | 644 |
